# Data: ChEMBL document CHEMBL1130231, “Betidamino acid scan of the GnRH antagonist acyline” (J Med Chem, 1997)
# Activity calls are given as the source filed them. No cut-off for these calls is given here.
# Experiments:
# Type in all cases: functional, organism-based
# [1] = tested on: Rattus norvegicus; assay: Ratio of ovulated rats to total number of rats determined in a anti-ovulatory assay by administering 250 microg of compound; 8/9
# [2] = tested on: Rattus norvegicus; assay: Ratio of ovulated rats to total number of rats determined in a anti-ovulatory assay by administering 2.5 microg of compound; 5/8
# [3] = tested on: Rattus norvegicus; assay: Ratio of ovulated rats to total number of rats determined in a anti-ovulatory assay by administering 5 microg of compound; 4/8
# [4] = tested on: Rattus norvegicus; assay: Ratio of ovulated rats to total number of rats determined in a anti-ovulatory assay by administering 2.5 microg of compound; 0/7
# [5] = tested on: Rattus norvegicus; assay: Ratio of ovulated rats to total number of rats determined in a anti-ovulatory assay by administering 1 ug of compound; 3/3
# [6] = tested on: Rattus norvegicus; assay: Ratio of ovulated rats to total number of rats determined in a anti-ovulatory assay by administering 10 microg of compound; 8/8
# [7] = tested on: Rattus norvegicus; assay: Ratio of ovulated rats to total number of rats determined in a anti-ovulatory assay by administering 25 microg of compound; 6/8
# [8] = tested on: Rattus norvegicus; assay: Ratio of ovulated rats to total number of rats determined in a anti-ovulatory assay by administering 5 microg of compound; 0/8
# [9] = tested on: Rattus norvegicus; assay: Ratio of ovulated rats to total number of rats determined in a anti-ovulatory assay by administering 1 ug of compound; 6/8
# [10] = tested on: Rattus norvegicus; assay: Ratio of ovulated rats to total number of rats determined in a anti-ovulatory assay by administering 1 microg of compound; 2/7
# [11] = tested on: Rattus norvegicus; assay: Ratio of ovulated rats to total number of rats determined in a anti-ovulatory assay by administering 2.5 microg of compound; 0/8
# [12] = tested on: Rattus norvegicus; assay: Ratio of ovulated rats to total number of rats determined in a anti-ovulatory assay by administering 10 microg of compound; 2/6
# [13] = tested on: Rattus norvegicus; assay: Ratio of ovulated rats to total number of rats determined in a anti-ovulatory assay by administering 25 microg of compound; 0/3
# [14] = tested on: Rattus norvegicus; assay: Ratio of ovulated rats to total number of rats determined in a anti-ovulatory assay by administering 1 microg of compound; 5/13
# [15] = tested on: Rattus norvegicus; assay: Ratio of ovulated rats to total number of rats determined in a anti-ovulatory assay by administering 0.5 microg of compound; 6/7
# [16] = tested on: Rattus norvegicus; assay: Ratio of ovulated rats to total number of rats determined in a anti-ovulatory assay by administering 10 microg of compound; 3/7
# [17] = tested on: Rattus norvegicus; assay: Ratio of ovulated rats to total number of rats determined in a anti-ovulatory assay by administering 10 microg of compound; 4/8
# [18] = tested on: Rattus norvegicus; assay: Ratio of ovulated rats to total number of rats determined in a anti-ovulatory assay by administering 2.5 microg of compound; 7/8
# [19] = tested on: Rattus norvegicus; assay: Ratio of ovulated rats to total number of rats determined in a anti-ovulatory assay by administering 1 microg of compound; 6/14
# [20] = tested on: Rattus norvegicus; assay: Ratio of ovulated rats to total number of rats determined in a anti-ovulatory assay by administering 2.5 microg of compound; 0/5
# [21] = tested on: Rattus norvegicus; assay: Ratio of ovulated rats to total number of rats determined in a anti-ovulatory assay by administering 50 microg of compound; 3/8
# [22] = tested on: Rattus norvegicus; assay: Ratio of ovulated rats to total number of rats determined in a anti-ovulatory assay by administering 100 microg of compound; 0/8
# [23] = tested on: Rattus norvegicus; assay: Ratio of ovulated rats to total number of rats determined in a anti-ovulatory assay by administering 1 microg of compound; 1/8
# [24] = tested on: Rattus norvegicus; assay: Ratio of ovulated rats to total number of rats determined in a anti-ovulatory assay by administering 1 microg of compound; 0/8
# [25] = tested on: Rattus norvegicus; assay: Ratio of ovulated rats to total number of rats determined in a anti-ovulatory assay by administering 0.5 microg of compound; 5/8
# [26] = tested on: Rattus norvegicus; assay: Ratio of ovulated rats to total number of rats determined in a anti-ovulatory assay by administering 5 microg of compound; 1/8
# [27] = tested on: Rattus norvegicus; assay: Ratio of ovulated rats to total number of rats determined in a anti-ovulatory assay by administering 10 ug of compound; 0/8
smiles,measurement,setting,value
"CC(=O)Nc1ccc(C[C@H](NC(=O)[C@H](CO)NC(=O)[C@@H](Cc2cccnc2)NC(=O)[C@@H](NC(=O)c2c[nH]nc2N)NC(=O)[C@@H](Cc2ccc3ccccc3c2)NC(C)=O)C(=O)N[C@H](Cc2ccc(NC(C)=O)cc2)C(=O)N[C@@H](CC(C)C)C(=O)N[C@@H](CCCCNC(C)C)C(=O)N2CCC[C@@H]2C(=O)N[C@H](C)C(N)=O)cc1 (single isomer, unassigned)",ov. rat/total,[1],inactive
"CC(=O)Nc1ccc(C[C@H](NC(=O)[C@@H](NC(=O)[C@@H](Cc2cccnc2)NC(=O)[C@@H](Cc2ccc(Cl)cc2)NC(=O)[C@@H](Cc2ccc3ccccc3c2)NC(C)=O)N(C)C=O)C(=O)N[C@H](Cc2ccc(NC(C)=O)cc2)C(=O)N[C@@H](CC(C)C)C(=O)N[C@@H](CCCCNC(C)C)C(=O)N2CCC[C@@H]2C(=O)N[C@H](C)C(N)=O)cc1 (single isomer, unassigned)",ov. rat/total,[2],Partially active
"CC(=O)Nc1ccc(C[C@H](NC(=O)[C@H](NC(=O)CO)NC(=O)[C@@H](Cc2cccnc2)NC(=O)[C@@H](Cc2ccc(Cl)cc2)NC(=O)[C@@H](Cc2ccc3ccccc3c2)NC(C)=O)C(=O)N[C@H](Cc2ccc(NC(C)=O)cc2)C(=O)N[C@@H](CC(C)C)C(=O)N[C@@H](CCCCNC(C)C)C(=O)N2CCC[C@@H]2C(=O)N[C@H](C)C(N)=O)cc1 (single isomer, unassigned)",ov. rat/total,[3],Partially active
CC(=O)Nc1ccc(C[C@H](NC(=O)[C@H](CO)NC(=O)[C@H](NC(=O)c2cccnc2)NC(=O)[C@@H](Cc2ccc(Cl)cc2)NC(=O)[C@@H](Cc2ccc3ccccc3c2)NC(C)=O)C(=O)N[C@H](Cc2ccc(NC(C)=O)cc2)C(=O)N[C@@H](CC(C)C)C(=O)N[C@@H](CCCCNC(C)C)C(=O)N2CCC[C@@H]2C(=O)N[C@H](C)C(N)=O)cc1,ov. rat/total,[4],Active
same,ov. rat/total,[5],inactive
"CC(=O)Nc1ccc(C[C@H](NC(=O)[C@H](CO)NC(=O)[C@@H](NC(=O)[C@@H](Cc2ccc(Cl)cc2)NC(=O)[C@@H](Cc2ccc3ccccc3c2)NC(C)=O)N(C)C(=O)c2cccnc2)C(=O)N[C@H](Cc2ccc(NC(C)=O)cc2)C(=O)N[C@@H](CC(C)C)C(=O)N[C@@H](CCCCNC(C)C)C(=O)N2CCC[C@@H]2C(=O)N[C@H](C)C(N)=O)cc1 (single isomer, unassigned)",ov. rat/total,[6],inactive
same,ov. rat/total,[7],inactive
CC(=O)Nc1ccc(C[C@H](NC(=O)[C@H](NC=O)NC(=O)[C@@H](Cc2cccnc2)NC(=O)[C@@H](Cc2ccc(Cl)cc2)NC(=O)[C@@H](Cc2ccc3ccccc3c2)NC(C)=O)C(=O)N[C@H](Cc2ccc(NC(C)=O)cc2)C(=O)N[C@@H](CC(C)C)C(=O)N[C@@H](CCCCNC(C)C)C(=O)N2CCC[C@@H]2C(=O)N[C@H](C)C(N)=O)cc1,ov. rat/total,[8],Active
same,ov. rat/total,[9],inactive
CC(=O)Nc1ccc(C[C@H](NC(=O)[C@H](CO)NC(=O)[C@@H](Cc2cccnc2)NC(=O)[C@@H](Cc2ccc(Cl)cc2)NC(=O)[C@@H](NC(C)=O)NC(=O)c2ccc3ccccc3c2)C(=O)N[C@H](Cc2ccc(NC(C)=O)cc2)C(=O)N[C@@H](CC(C)C)C(=O)N[C@@H](CCCCNC(C)C)C(=O)N2CCC[C@@H]2C(=O)N[C@H](C)C(N)=O)cc1,ov. rat/total,[10],Partially active
same,ov. rat/total,[11],Active
CC(=O)Nc1ccc(C[C@H](NC(=O)[C@H](CO)NC(=O)[C@@H](Cc2cccnc2)NC(=O)[C@@H](Cc2ccc(Cl)cc2)NC(=O)[C@H](Cc2ccc3ccccc3c2)NC(C)=O)C(=O)N[C@H](Cc2ccc(NC(C)=O)cc2)C(=O)N[C@@H](CC(C)C)C(=O)N[C@@H](CCCCNC(C)C)C(=O)N2CCC[C@@H]2C(=O)N[C@H](C)C(N)=O)cc1,ov. rat/total,[12],Partially active
same,ov. rat/total,[13],Active
CC(=O)Nc1ccc(C[C@H](NC(=O)[C@H](CO)NC(=O)[C@@H](Cc2cccnc2)NC(=O)[C@@H](Cc2ccc(Cl)cc2)NC(=O)[C@@H](Cc2ccc3ccccc3c2)NC(C)=O)C(=O)N[C@H](Cc2ccc(NC(C)=O)cc2)C(=O)N[C@@H](CC(C)C)C(=O)N[C@@H](CCCCNC(C)C)C(=O)N2CCC[C@@H]2C(=O)N[C@H](C)C(N)=O)cc1,ov. rat/total,[4],Active
same,ov. rat/total,[14],Partially active
same,ov. rat/total,[15],inactive
"CC(=O)Nc1ccc(C[C@H](NC(=O)[C@H](CO)NC(=O)[C@H](NC(=O)c2ccncc2)NC(=O)[C@@H](Cc2ccc(Cl)cc2)NC(=O)[C@@H](Cc2ccc3ccccc3c2)NC(C)=O)C(=O)N[C@H](Cc2ccc(NC(C)=O)cc2)C(=O)N[C@@H](CC(C)C)C(=O)N[C@@H](CCCCNC(C)C)C(=O)N2CCC[C@@H]2C(=O)N[C@H](C)C(N)=O)cc1 (single isomer, unassigned)",ov. rat/total,[16],Partially active
"CC(=O)Nc1ccc(C[C@H](NC(=O)[C@H](CO)NC(=O)[C@@H](Cc2cccnc2)NC(=O)[C@@H](Cc2ccc(Cl)cc2)NC(=O)[C@@H](Cc2ccc3ccccc3c2)NC(C)=O)C(=O)N[C@H](Cc2ccc(NC(C)=O)cc2)C(=O)N[C@@H](CC(C)C)C(=O)N[C@@H](C(=O)N2CCC[C@@H]2C(=O)N[C@H](C)C(N)=O)N(C)C(=O)CCNC(C)C)cc1 (single isomer, unassigned)",ov. rat/total,[17],Partially active
same,ov. rat/total,[18],inactive
CC(=O)Nc1ccc(C[C@H](NC(=O)[C@H](CO)NC(=O)[C@@H](NC(=O)c2cccnc2)NC(=O)[C@@H](Cc2ccc(Cl)cc2)NC(=O)[C@@H](Cc2ccc3ccccc3c2)NC(C)=O)C(=O)N[C@H](Cc2ccc(NC(C)=O)cc2)C(=O)N[C@@H](CC(C)C)C(=O)N[C@@H](CCCCNC(C)C)C(=O)N2CCC[C@@H]2C(=O)N[C@H](C)C(N)=O)cc1,ov. rat/total,[19],Partially active
same,ov. rat/total,[20],Active
CC(=O)Nc1ccc(C[C@H](NC(=O)[C@H](CO)NC(=O)[C@@H](Cc2cccnc2)NC(=O)[C@H](NC(=O)[C@@H](Cc2ccc3ccccc3c2)NC(C)=O)N(C)C(=O)c2ccc(Cl)cc2)C(=O)N[C@H](Cc2ccc(NC(C)=O)cc2)C(=O)N[C@@H](CC(C)C)C(=O)N[C@@H](CCCCNC(C)C)C(=O)N2CCC[C@@H]2C(=O)N[C@H](C)C(N)=O)cc1,ov. rat/total,[21],Partially active
same,ov. rat/total,[22],Active
CC(=O)Nc1ccc(C[C@H](NC(=O)[C@H](CO)NC(=O)[C@@H](Cc2cccnc2)NC(=O)[C@@H](Cc2ccc(Cl)cc2)NC(=O)[C@@H](Cc2ccc3ccccc3c2)NC(C)=O)C(=O)N[C@H](Cc2ccc(NC(C)=O)cc2)C(=O)N[C@@H](CC(C)C)C(=O)N[C@@H](CCCCNC(C)C)C(=O)N2CCC[C@@H]2C(=O)N[C@H](C(N)=O)N(C)C=O)cc1,ov. rat/total,[23],inactive
same,ov. rat/total,[11],Active
"CC(=O)Nc1ccc(C[C@H](NC(=O)[C@H](CO)NC(=O)[C@@H](Cc2cccnc2)NC(=O)[C@@H](Cc2ccc(Cl)cc2)NC(=O)[C@@H](Cc2ccc3ccccc3c2)NC(C)=O)C(=O)N[C@H](Cc2ccc(NC(C)=O)cc2)C(=O)N[C@@H](CC(C)C)C(=O)N[C@H](C(=O)N2CCC[C@@H]2C(=O)N[C@H](C)C(N)=O)N(C)C(=O)CCNC(C)C)cc1 (single isomer, unassigned)",ov. rat/total,[11],Active
same,ov. rat/total,[24],Active
same,ov. rat/total,[25],Partially active
CC(=O)Nc1ccc(C[C@H](NC(=O)[C@H](CO)NC(=O)[C@H](Cc2cccnc2)NC(=O)[C@@H](Cc2ccc(Cl)cc2)NC(=O)[C@@H](Cc2ccc3ccccc3c2)NC(C)=O)C(=O)N[C@H](Cc2ccc(NC(C)=O)cc2)C(=O)N[C@@H](CC(C)C)C(=O)N[C@@H](CCCCNC(C)C)C(=O)N2CCC[C@@H]2C(=O)N[C@H](C)C(N)=O)cc1,ov. rat/total,[26],Active
same,ov. rat/total,[27],Active
